Results taken from PubChem BioAssay AID262 (DTP/NCI, 2004).
Values joined by “and” are separate entries in the source; they are usually repeats but may differ in a detail not shown here. Equal entries are not always repeated.

System: LX-1 lung xenograft sc, nude mice, tumor weight
Assay: NCI In Vivo Anticancer Drug Screen. Data for tumor model Human Lung LX-1 Xenograft (subcutaneous) in NU/NU Swiss (nude) mice
Conditions: endpoint: optimum tumor weight change, schedule: Q04DX003 (ip), higher = larger tumour
Procedure: The antitumor activity of compounds was measured in mice bearing transplantable tumors. Survival or tumor size were measured and the results are expressed as the measurement made in the treated group (T) divided by the measurement made in the vehicle treated control group (C). The tumor model used in this assay is Human Lung LX-1 Xenograft (subcutaneous) in NU/NU Swiss (nude) mice

[1] = dose: 200.0 mg/kg/injection, vehicle: suspension in saline

CNC=O
T/C (dose: 200.0 mg/kg/injection, vehicle: saline): 64 % of control and 82 % of control and 86 % of control | T/C [1]: 56 % of control and 67 % of control | T/C (dose: 400.0 mg/kg/injection, vehicle: saline): 38 % of control and 41 % of control and 49 % of control | T/C (dose: 400.0 mg/kg/injection, vehicle: suspension in saline): 37 % of control and 57 % of control | T/C (dose: 800.0 mg/kg/injection, vehicle: saline): 12 % of control and 23 % of control | T/C (dose: 800.0 mg/kg/injection, vehicle: suspension in saline): 25 % of control and 30 % of control

CSc1cc(=O)n2c3ccccc3c3ccnc1c32
T/C (dose: 20.0 mg/kg/injection, vehicle: saline with Tween-80): 92 % of control | T/C (dose: 40.0 mg/kg/injection, vehicle: saline with Tween-80): 71 % of control | T/C (dose: 80.0 mg/kg/injection, vehicle: saline with Tween-80): 93 % of control | T/C (dose: 160.0 mg/kg/injection, vehicle: saline with Tween-80): 92 % of control

COc1cccc2c1C(=O)c1c(O)c3c(c(O)c1C2=O)C[C@@](O)(C(C)=O)C[C@@H]3OC1CC(N)C(O)C(C)O1 (some centres not stated)
T/C (dose: 0.25 mg/kg/injection, vehicle: saline): 52 % of control | T/C (dose: 0.5 mg/kg/injection, vehicle: saline): 39 % of control | T/C (dose: 1.0 mg/kg/injection, vehicle: saline): 86 % of control

O=C(NC1CCCCC1)OCc1c(COC(=O)NC2CCCCC2)c(-c2ccc(Cl)c(Cl)c2)n2c1CCC2
T/C (dose: 200.0 mg/kg/injection, vehicle: saline with Tween-80): 89 % of control | T/C (dose: 400.0 mg/kg/injection, vehicle: saline with Tween-80): 88 % of control | T/C (dose: 800.0 mg/kg/injection, vehicle: saline with Tween-80): 73 % of control

CN(C)N=Nc1cn[nH]c1C(N)=O
T/C (dose: 50.0 mg/kg/injection, vehicle: Klucel (hydroxypropylcellulose) (HPC)): 2 % of control | T/C (dose: 200.0 mg/kg/injection, vehicle: Klucel (hydroxypropylcellulose) (HPC)): 53 % of control | T/C (dose: 400.0 mg/kg/injection, vehicle: Klucel (hydroxypropylcellulose) (HPC)): -43 % of control

O=CC(S)CO (configuration not stated)
T/C [1]: 99 % of control

NC(=O)c1ccc[n+](Cc2c(Cl)cccc2Cl)c1
T/C (dose: 24.0 mg/kg/injection, vehicle: saline): 47 % of control | T/C (dose: 48.0 mg/kg/injection, vehicle: saline): 68 % of control
